Patent publication US20090264485A1, “Pyrazole Derivatives, Their Manufacture and Their Use as Pharmaceutical Agents” (priority 2005, published 2009)

Columns and labels:
HEK293 cells = assay: CellTiter-Glo Luminescent Cell Viability Assay in HEK293 cells; format: cell-based; details: Homo sapiens, 168 h, 7 days incubation, CellTiter-Glo luminescence
Description: CellTiter-Glo™ Assay in HEK293 Cells
The CellTiter-Glo™ Luminescent Cell Viability Assay (Promega) is a homogeneous method of determining the number of viable cells in culture based on quantitation of the ATP present, which signals the presence of metabolically active cells.
HEK293 cells (human embryonic kidney cell line transformed by Adenovirus 5 fragments, ATCC-No. CRL 1573) were cultivated in Dulbecco's Modified Eagle Medium (DMEM) with Glutamax™ (Invitrogen, 31966-021), 5% Fetal Calf Serum (FCS, Sigma Cat-No. F4135 (FBS)), 100 Units/ml penicillin/100 μg/ml streptomycin (=Pen/Strep from Invitrogen Cat. No. 15140). For the assay the cells were seeded in 384 well plates, 5000 cells per well, in the same medium. The next day the test compounds were added in various concentrations ranging from 3 μM to 0.00015 μM (10 concentrations, 1:3 diluted). After 7 days the CellTiter-Glo™ assay was done according to the instructions of the manufacturer (CellTiter-Glo™ Luminescent Cell Viability Assay, from Promega). In brief: the cell-plate was equilibrated to room temperature for approximately 30 minutes and than the CellTiter-Glo™ reagent was added. The contents were carefully mixed for 15 minutes to induce cell lysis. After 45 minutes the luminescent signal was measured in Victor 2, (scanning multiwell spectrophotometer, Wallac).
• Medium: Dulbecco's Modified Eagle Medium (DMEM) with Glutamax™ (Invitrogen, 31966-021), 5% Fetal Calf Serum (FCS, Sigma Cat-No. F4135 (FBS)), Pen/Strep (Invitrogen Cat. No. 15140). • HEK293 (ATCC-No. CRL 1573): 5000 cells in 60 μl per well of 384 well plate (Greiner 781098, white plates) • Incubate 24 h at 37° C., 5% CO2
In general the dilution steeps are 1:3 • a) Add 8 μl of 10 mM stock solution of compound to 72 μl DMSO • b) dilute 9×1:3 (always 30 μl to 60 μl DMSO) in this DMSO dilution row (results in 10 wells with concentrations from 1000 μM to 0.06 μM) • c) dilute each concentration 1:4.8 (10 μl compound dilution to 38 μl medium) • d) dilute each concentration 1:10 (10 μl compound dilution to 90 μl medium) • e) add 10 μl of every concentration to 60 μl medium in the cell plate • resulting in final concentration of DMSO: 0.3% in every well • and resulting in final concentration of compounds from 3 μM to 0.00015 μM • Incubate 168 h (7 days) at 37° C., 5% CO2
• Add 30 μl CellTiter-Glo™ Reagent/well, • shake 15 minutes at room temperature • incubate further 45 minutes at room temperature without shaking.
• Victor 2 scanning multiwell spectrophotometer (Wallac), Luminescence mode • Determine IC50 with XL-fit (XLfit software (ID Business Solution Ltd., Guilford, Surrey, UK)).

melting point [°C]	Structure (SMILES)	IC50 (HEK293 cells) [µM]
77 to 78	Cc1cc(OCc2coc(/C=C/c3ccc(OC(F)(F)F)cc3)n2)ccc1COCCc1ccnn1C [Example 1, 4-{3-Methyl-4-[2-(E)-(2-methyl-2H-pyrazol-3-yl)-ethoxymethyl]-phenoxymethyl}-2-[2-(4-trifluoromethoxy-phenyl)-vinyl]-oxazole]	0.095
161 to 162	Cc1cc(OCc2coc(/C=C/c3ccc(C(F)(F)F)cc3)n2)ccc1C[S+]([O-])CCc1ccnn1C (centres unmarked) [Example 7, 4-{3-Methyl-4-[2-(2-methyl-2H-pyrazol-3-yl)-ethanesulfinylmethyl]-phenoxymethyl}-2-[2-(E)-(4-trifluoromethyl-phenyl)-vinyl]-oxazole]	0.005 to 0.25
144 to 146	Cn1nccc1CC[S+]([O-])Cc1ccc(OCc2coc(/C=C/c3ccc(OC(F)(F)F)cc3)n2)cc1 (centres unmarked) [Example 8, 4-{4-[2-(2-Methyl-2H-pyrazol-3-yl)-ethanesulfinylmethyl]-phenoxymethyl}-2-[2-(E)-(4-trifluoromethoxy-phenyl)-vinyl]-oxazole]	0.25 to 1
172 to 174	Cn1nccc1CC[S+]([O-])Cc1ccc(OCc2coc(/C=C/c3ccc(C(F)(F)F)cc3)n2)cc1 (centres unmarked) [Example 9, 4-{4-[2-(2-Methyl-2H-pyrazol-3-yl)-ethanesulfinylmethyl]-phenoxymethyl}-2-[2-(E)-(4-trifluoromethyl-phenyl)-vinyl]-oxazole]	0.25 to 1
204	Cn1nccc1CCS(=O)(=O)Cc1ccc(OCc2coc(/C=C/c3ccc(C(F)(F)F)cc3)n2)cc1 [Example 10, 4-{4-[2-(2-Methyl-2H-pyrazol-3-yl)-ethanesulfonylmethyl]-phenoxymethyl}-2-[2-(4-trifluoromethyl-phenyl)-vinyl]-oxazole]	–

Continued, molecule first:

Structure (SMILES)	melting point [°C]	IC50 (HEK293 cells) [µM]
Cc1cc(OCc2coc(/C=C/c3ccc(C(F)(F)F)cc3)n2)ccc1COCCc1ccnn1C [Example 2, 4-{3-Methyl-4-[2-(E)-(2-methyl-2H-pyrazol-3-yl)-ethoxymethyl]-phenoxymethyl}-2-[2-(4-trifluoromethyl-phenyl)-vinyl]-oxazole]	96 to 97	0.005 to 0.25
Cc1cc(OCc2coc(/C=C/c3ccc(Cl)cc3)n2)ccc1COCCc1ccnn1C [Example 3, 2-[2-(E)-(4-Chloro-phenyl)-vinyl]-4-{3-methyl-4-[2-(2-methyl-2H-pyrazol-3-yl)-ethoxymethyl]-phenoxymethyl}-oxazole]	106 to 107	0.005 to 0.25
Cc1cc(OCc2coc(/C=C/c3ccc(C(F)(F)F)cc3F)n2)ccc1COCCc1ccnn1C [Example 4, 2-[2-(E)-(2-Fluoro-4-trifluoromethyl-phenyl)-vinyl]-4-{3-methyl-4-[2-(2-methyl-2H-pyrazol-3-yl)-ethoxymethyl]-phenoxymethyl}-oxazole]	–	0.005 to 0.25
Cc1cc(OCc2coc(/C=C/c3ccc(OC(F)(F)F)cc3)n2)ccc1C[S+]([O-])CCc1ccnn1C (centres unmarked) [Example 5, 4-{3-Methyl-4-[2-(2-methyl-2H-pyrazol-3-yl)-ethanesulfinylmethyl]-phenoxymethyl}-2-[2-(E)-(4-trifluoromethoxy-phenyl)-vinyl]-oxazole]	138 to 139	–
Cc1cc(OCc2coc(/C=C/c3ccc(Cl)cc3)n2)ccc1C[S+]([O-])CCc1ccnn1C (centres unmarked) [Example 6, 2-[2-(E)-(4-Chloro-phenyl)-vinyl]-4-{3-methyl-4-[2-(2-methyl-2H-pyrazol-3-yl)-ethanesulfinylmethyl]-phenoxymethyl}-oxazole]	169 to 171	0.005 to 0.25
